Reference: patent publication US3944549A, “Amino derivatives of 1,4-benzodioxan” (priority 1972, dated 1976)
Entries after “also recorded” stand apart in the source; their conditions may differ. Structures can show the parent of a compound that is named as a salt.

Key:
adrenergic receptors = test: α-blocking action: reversal of the hypertensive effect of adrenalin; assay type: in vivo, dogs; conditions: for α-blocking / α-lytic action: conclusion or summary; for dose from which the product is α-blocking (adrenolytic): intravenously; for hypertensive effects of adrenalin: orally
[1] = tested on: vertebral, femoral and mesenteric artery flow rates; test: Vasodilating and cardiovascular properties on intravenous administration in dogs; conditions: for increase in vertebral flow rate: 0.5 mg/kg i.v.
Description: (§1) During the series of pharmacological tests, the following parameters were used:
Arterial pressure (abbreviated to AP): this parameter, expressed in mm Hg) is evaluated in accordance with the usual conditions.
Arterial resistance: this parameter (expressed in dynes/sec./cm^-^5) is calculated according to the ratio [formula] Cardiac index: this parameter is expressed in (ml/min.)/kg. Systolic index: this parameter is equal to the ratio cardiac index/frequency.
(§2) Cardiac work: this parameter (expressed in kgm/min.) is calculated according to the relationship: Cardiac work = average AP (mm Hg) × 1.36 = cardiac output (1/min.) × 10^-^3.
(§3) Ratio dp/dt: this parameter corresponds to the variation in pressure expressed in mm Hg per second (in English: Rate of rise of left ventricular pressure).
(§4) The technique used to measure the ratio dp/dt is as follows:
(§5) The cardiac output is determined in Beagle dogs weighing 10 to 15 kg, anesthetised with pentobarbital, by injecting Carbiogreen (1 mg in 0.5 ml) into the right ventricle. A catheter introduced via the carotid artery into the aorta makes it possible to aspirate arterial blood at the rate of 25 ml/min. and to pass it in front of the photoelectric cell of a Beckman cardiodensitometer. The results are interpreted in accordance with the Hamilton method.
(§6) In the case of intravenous administration, the tests were carried out on 4 anaesthetised dogs. The product is perfused intravenously over the course of 5 minutes at doses of 2.5, 5 and 10 mg/kg and, in one test, is administered intraduodenally at a dose of 10 mg/kg.

femoral artery = test: Vasodilating properties: injection into the femoral artery in dogs; assay type: in vivo; conditions: for increase in flow rate of the femoral artery: injection into femoral artery
Description: On injection into the femoral artery, no effect is observed at doses of less than 100 μg/kg. […] At these doses, no effect is observed on the arterial pressure AP measured in accordance with the usual conditions.
When administered intra-arterially, the product of Example 6 is injected directly into the femoral artery. The flow rate is increased by 200% from a dose of 10 μg.

intestinal barrier = test: Intraduodenal administration in dogs: cardiovascular effects and passage through the intestinal barrier; assay type: in vivo; conditions: for passage through the intestinal barrier: intraduodenal, dogs
Description: as §6

[2] = Acute toxicity, intravenous, in mice; conditions: mouse, in vivo; for LD50: read-out: LD-50 I.V. in mice; for NOAEL: read-out: Maximum non-toxic dose
man = test: Clinical studies in man; assay type: in vivo
From the text: In clinical studies, good results were obtained in man by administering tablets such as: […]

vertebral artery = test: Vasodilating properties: injection into the vertebral artery in dogs; assay type: in vivo; conditions: for decrease in arterial pressure: injection into vertebral artery
Description: On injection into the vertebral artery, no effect is observed at doses of less than 1 mg/kg. At a dose of 10 mg/kg, the flow rate increases by 37% and at a dose of 20 mg/kg it only increases by 27%. At these two doses, the arterial pressure decreases respectively by 14 and 28% although no effect had been observed during the injection into the femoral artery.

[3] = tested on: acetylcholine, isoprenalin, peripheral vagus; test: Effect on responses to acetylcholine, isoprenalin and stimulation of the peripheral vagus in dogs; conditions: dog, in vivo
coronary flow rate = test: Coronary flow rate and cardiac parameters in anaesthetised dogs, intravenous perfusion; assay type: in vivo
Description: as §1, §2, §3, §4, §5

[4] = tested on: femoral artery, vertebral artery; test: Flow rates of femoral and vertebral arteries after oral administration in dogs; assay type: in vivo
[5] = 4 anaesthetised dogs, 2.5, 5 and 10 mg/kg i.v.
[6] = third test, 0.5, 1, 2 and 4 mg/kg i.v. without stopping
[7] = anaesthetised dogs (Nembutal), 2.5 mg/kg i.v. over 5 minutes

SMILES: CCC(=O)OCCN1CCN(CC2COc3ccccc3O2)CC1 (centres unmarked) [Example 6, 1-[2-(1,4-Benzodioxanyl)-methyl]-4-[2-(propionyloxy)-ethyl]-piperazine dihydrochloride]
- α-blocking / α-lytic action (adrenergic receptors): α-blocking product
- dose from which the product is α-blocking (adrenolytic) (adrenergic receptors; dogs): 5 mg/kg
- femoral flow rate [1, 5]: increased in the tests wherein an increase in the pulse rate is observed
- intraventricular pressure [1, 5]: decreased
- pulse rate [1, 5]: either is not altered (2 tests) or is increased
- ratio dp/dt [1, 5]: decreased
- hypotensive effect ([1]; 4 anaesthetised dogs, 2.5, 5 and 10 mg/kg i.v. over 5 minutes): A hypotensive effect proportional to the dose
- time in which the femoral flow rate effect disappears ([1]; 4 anaesthetised dogs, i.v.): 15 min
- vertebral flow rate ([1]; 4 anaesthetised dogs, i.v.): only increases in one of the two tests wherein the pulse rate was increased
- effect on femoral flow rate, duration and reproducibility ([1]; conclusion): of short duration and is not reproducible
- mechanism of the vasodilating effect (femoral artery; conclusion): exclusively an alphalytic mechanism
- vasodilating effect at higher doses (femoral artery; femoral intra-arterial, up to and including 10 mg, dihydrochloride): do not produce a greater vasodilation; also recorded: maximal from the very start and cannot be increased by higher doses
- dose from which flow rate is increased by 200% (femoral artery; injected directly into the femoral artery): 10 µg
- activity on intraduodenal administration (intestinal barrier; 10 mg/kg intraduodenally): the activity is found again
- passage through the intestinal barrier (intestinal barrier): passes through the intestinal barrier
- LD50 [2]: 109 ± 9 mg/kg

SMILES: CC(=O)OCCN1CCN(CC2COc3ccccc3O2)CC1 (centres unmarked) [Example 7, 1-[2-(1,4-Benzodioxanyl)-methyl]-4-[2-(acetyloxy)-ethyl]-piperazine dihydrochloride]
- α-blocking / α-lytic action (adrenergic receptors): α-lytic
- reversal of the hypertension due to adrenalin (adrenergic receptors; from 2.5 mg/kg i.v., dogs): reversal of the hypertension due to adrenalin
- dose from which the product is α-blocking (adrenolytic) (adrenergic receptors; dogs): 2.5 mg/kg
- hypotension ([1]; from 2.5 mg/kg i.v., both dogs): a hypotension
- left ventricular pressure ([1]; from 2.5 mg/kg i.v., both dogs): a decrease in the left ventricular pressure
- pulse rate ([1]; from 2.5 mg/kg i.v., both dogs): does not vary markedly
- ratio dp/dt ([1]; from 2.5 mg/kg i.v., both dogs): decrease
- systolic ejection time ([1]; from 2.5 mg/kg i.v., both dogs): decrease
- LD50 [2]: 86 ± 1 mg/kg
- NOAEL [2]: 80 mg/kg

SMILES: OCC(O)CN1CCN(CC2COc3ccccc3O2)CC1 (centres unmarked) [Example 3, 1-[2-(1,4-Benzodioxanyl)-methyl]-4-(2,3-dihydroxypropyl)-piperazine dihydrochloride]
- hypertensive effect of adrenalin (adrenergic receptors; 10 mg/kg intraduodenally): reversal of the hypertensive effect of adrenalin
- α-blocking / α-lytic action (adrenergic receptors): α-blocking agent
- results in man in vascular complaints (man; tablets containing 20 mg, 2 to 3 per day): good results in vascular complaints
- AP ([1]; i.v., 1 mg to 13 mg/kg): little effect on the AP or a slight hypotension
- cardiac output ([1]; i.v., 1 mg to 13 mg/kg): scarcely changed
- differential AP ([1]; i.v., 1 mg to 13 mg/kg): An increase in the differential AP
- dp/dt ([1]; i.v., 1 mg to 13 mg/kg): an increase in dp/dt
- effect on the vertebral flow rate ([1]; i.v., 1 mg to 13 mg/kg): no effect on the vertebral flow rate
- ejection time ([1]; i.v., 1 mg to 13 mg/kg): shortening of the ejection time
- rise in the pulse rate ([1]; i.v., 1 mg to 13 mg/kg): ≤ 25%
- cardiovascular variations after intraduodenal administration (intestinal barrier; 10 and 50 mg/kg intraduodenally): the variations described after intravenous injection are found again
- passage through the intestinal barrier (intestinal barrier; dihydrochloride): passes easily through the intestinal barrier
- LD50 [2]: 260 ± 11 mg/kg
- NOAEL [2]: > 170 mg/kg

SMILES: OCCN1CCN(CC2COc3ccccc3O2)CC1 (centres unmarked) [Example 2, 1-[2-(1,4-Benzodioxanyl)-methyl]-4-(2-hydroxyethyl)-piperazine hemifumarate]
- α-blocking / α-lytic action (adrenergic receptors): acts as an α-lytic product
- hypertensive effect of adrenalin (adrenergic receptors; dogs): reverses the hypertensive effect of adrenalin in a lasting manner
- hypertensive effects of adrenalin (adrenergic receptors; dogs, 5 mg/kg): decreases the said effects
- hypertensive effects of adrenalin (adrenergic receptors; dogs, 7 mg/kg): inhibits them strongly
- hypertensive effects of adrenalin (adrenergic receptors; dogs, 10 mg/kg): overcomes the α + effect of adrenalin
- results in clinical studies in man (man; tablets 50 mg or injectable ampoules 10 mg): good results
- duration of increase in flow rate of the vertebral artery ([1]; another test, 2 mg/kg i.v.): more than 1 hour
- flow rate of the femoral artery ([1]; another test, 2 mg/kg i.v.): only increased greatly during the injection
- pulse rate ([1]; first and second tests, i.v.): the pulse rate is increased and this effect persists during successive injections
- effect of additional injections on the flow rate ([1]; first test, additional 0.5 and 5 mg/kg i.v.): no effect on the flow rate
- increase in vertebral flow rate ([1]; second test, beginning of perfusion): 135%
- increase in vertebral flow rate ([1]; second test, end of perfusion): 58%
- effect of subsequent injections on the flow rate ([1]; second test, subsequent 1 and 2 mg/kg i.v.): no effect on the flow rate
- dilation of arteries ([1]; summary): can dilate either the vertebral artery or the femoral artery or both
- hypotensive effect ([1]; summary, higher dose): at a higher dose, it is hypotensive
- tachycardiac properties ([1]; summary, low doses): possesses tachycardiac properties at low doses
- femoral flow rate [1, 6]: is increased very much by the first injection, decreases during the subsequent injections
- flow rate of the vertebral artery [1, 6]: increases at each of the injections up to the third
- decrease in flow rate of the mesenteric artery ([1]; third test, 0.5, 1, 2 and 4 mg/kg i.v., at each injection): 25%
- effect on injection into the vertebral artery (vertebral artery; doses of less than 1 mg/kg): no effect
- decrease in arterial pressure (vertebral artery; 10 mg/kg): 14%
- decrease in arterial pressure (vertebral artery; 20 mg/kg): 28%
- effect on injection into the femoral artery (femoral artery; doses of less than 100 μg/kg): no effect
- increase in flow rate of the femoral artery (femoral artery; 1 mg/kg): 34%
- increase in flow rate of the femoral artery (femoral artery; 10 mg/kg): 90%
- increase in flow rate of the femoral artery (femoral artery; 20 mg/kg): 67%
- effect on the arterial pressure AP (femoral artery; injection into femoral artery, 1, 10, 20 mg/kg): no effect
- effect of the stimulation of the peripheral vagus [3]: does not alter
- effects of the injection of acetylcholine [3]: does not alter
- effects of the injection of isoprenalin [3]: does not alter
- cardiac work (coronary flow rate; 5 mg/kg i.v.): an increase in the cardiac work
- duration of increase in maximum intraventricular pressure (coronary flow rate; 5 mg/kg i.v.): 1 h
- duration of increase in ratio dp/dt (coronary flow rate; 5 mg/kg i.v.): more than 1 hour
- duration of increase in the differential arterial pressure (coronary flow rate; 5 mg/kg i.v.): 1 h
- duration of tachycardia (coronary flow rate; 5 mg/kg i.v.): more than 2 hours
- time of maximum effect on coronary flow rate (coronary flow rate; 5 mg/kg i.v.): 1 h
- duration of hypotension (coronary flow rate; 5 mg/kg i.v., can last): more than 2 hours
- cardiac work (coronary flow rate; summary): increases the cardiac work
- coronary irrigation (coronary flow rate; summary): increases the coronary irrigation
- LD50 [2]: 97 ± 2 mg/kg
- NOAEL [2]: 90 mg/kg

SMILES: c1cnc(N2CCN(CC3COc4ccccc4O3)CC2)nc1 (centres unmarked) [Example 8, 1-[2-(1,4-Benzodioxanyl)-methyl]-4-(2-pyrimidinyl)-piperazine dihydrochloride]
- α-blocking / α-lytic action (adrenergic receptors): α-blocking action
- hypertensive effect of adrenalin (adrenergic receptors; dogs anaesthetised by Nembutal): the hypertensive effect of adrenalin is reversed
- decrease in the vertebral flow rate [1, 7]: 19%
- effect on the mesenteric flow rate [1, 7]: practically no effect
- increase in the differential arterial pressure [1, 7]: 50%
- tachycardia ([1]; anaesthetised dogs (Nembutal), 2.5 mg/kg i.v. over 5 minutes, increase (+)): 19%
- femoral vasodilating effect ([1]; anaesthetised dogs (Nembutal), 2.5 mg/kg i.v. over 5 minutes, slight, increase (+)): 19%
- passage into the general circulation ([4]; 10 mg/kg): the product passes into the general circulation
- duration of rise in the flow rates ([4]; orally, 1 to 10 mg/kg): 30 min
- rise in the femoral flow rate ([4]; orally, 1 to 10 mg/kg): 200%
- rise in the vertebral flow rate ([4]; orally, 1 to 10 mg/kg): 60%
- flow rate of the femoral artery ([4]; orally, less than 100 μg/kg): does not alter
- flow rate of the vertebral artery ([4]; orally, less than 100 μg/kg): does not alter
- LD50 [2]: 145 ± 10 mg/kg
